{
  "source": "patent US20070128217A1",
  "about": "(priority 2003, published 2007)",
  "key": {"[1]": {"tested_on": "antibodies in sera from SARS patients (sera 1a, 1b, 2, 6, 37, 62, London, SARS-yellow, SARS-green)", "type": "binding, human", "set-up": "Binding of serum 6 to linear peptides of protein X1 of SARS-CoV Urbani / Binding of serum 37 to linear peptides of protein X1 of SARS-CoV Urbani / Binding of serum 6 to looped/cyclic peptide (PEPSCAN-ELISA) / Binding of serum 37 to looped/cyclic peptide (PEPSCAN-ELISA) / Binding of serum 37 to looped/cyclic peptides of protein X1 of SARS-CoV Urbani / Binding of serum 6 to linear peptides of protein X2 / Binding of serum 37 to linear peptides of protein X2 / Binding of serum 37 to looped/cyclic peptides of protein X2 of SARS-CoV Urbani / Binding of serum 6 to linear peptides of protein M of SARS-CoV Urbani / Binding of serum 37 to linear peptides of protein M of SARS-CoV Urbani / Binding of serum 6 to looped/cyclic peptides of protein M of SARS-CoV Urbani / Binding of serum 37 to looped/cyclic peptides of protein M of SARS-CoV Urbani / Binding of serum 6 to linear peptides of protein X3 of SARS-CoV Urbani / Binding of serum 37 to linear peptides of protein X3 of SARS-CoV Urbani / Binding of serum 37 to looped/cyclic peptides of protein X3 of SARS-CoV Urbani / Binding of serum 6 to linear peptides of protein X4 of SARS-CoV Urbani / Binding of serum 37 to linear peptides of protein X4 of SARS-CoV Urbani / Binding of serum 37 to looped/cyclic peptides of protein X4 of SARS-CoV Urbani / Binding of serum 6 to linear peptides of protein X5 of SARS-CoV Urbani / Binding of serum 37 to linear peptides of protein X5 of SARS-CoV Urbani / Binding of serum 37 to looped/cyclic peptides of protein X5 of SARS-CoV Urbani / Binding of serum 6 to linear peptides of protein N of SARS-CoV Urbani / Binding of serum 37 to linear peptides of protein N of SARS-CoV Urbani / Binding of serum 6 to linear peptide (PEPSCAN-ELISA) / Binding of serum 1a to looped/cyclic peptides of protein N of SARS-CoV Urbani / Binding of serum 1b to looped/cyclic peptides of protein N of SARS-CoV Urbani / Binding of serum 2 to looped/cyclic peptides of protein N of SARS-CoV Urbani / Binding of serum 6 to looped/cyclic peptides of protein N of SARS-CoV Urbani / Binding of serum 37 to looped/cyclic peptides of protein N of SARS-CoV Urbani / Binding of serum 62 to looped/cyclic peptides of protein N of SARS-CoV Urbani / Binding of serum London to looped/cyclic peptides of protein N of SARS-CoV Urbani / Binding of serum SARS-green to looped/cyclic peptides of protein N of SARS-CoV Urbani: unit not given here"}, "[2]": {"tested_on": "control sera (pooled serum of ten healthy LUMC hospital workers; commercial negative donor pooled serum from the Dutch bloodbank)", "type": "binding, human", "set-up": "Binding of Control serum LUMC to linear peptides / Binding of Control serum Blood-bank to linear peptides / Binding of Control serum LUMC to looped peptides / Binding of Control Serum Blood-Bank to Looped peptides / Binding of Control serum LUMC to linear peptides of the protein M of SARS-CoV Urbani / Binding of Control serum Blood-bank to linear peptides of the protein M of SARS-CoV Urbani / Binding of Control serum LUMC to looped peptides of the protein M of SARS-CoV Urbani / Binding of Control Serum Blood-Bank to Looped peptides of the protein M of SARS-CoV Urbani: unit not given here"}, "[3]": {"tested_on": "rabbit serum obtained by immunizing a rabbit with the SARS-CoV strain Frankfurt 1", "type": "binding", "set-up": "Binding of a rabbit serum to linear peptides / Binding of a rabbit serum to looped peptides / Rabbit serum linear peptides / Rabbit serum looped peptides / Binding of a rabbit serum to linear peptides of protein N of SARS-CoV Urbani (Rabbit serum linear peptides) / Binding of a rabbit serum to looped/cyclic peptides of protein N of SARS-CoV Urbani (Rabbit serum looped peptides): unit not given here"}},
  "data": [
    {"sequence": "SLHKLLQTLVLKMLH", "values": [
      {"measurement": "Binding of serum 1a to linear peptides of protein X2", "setting": "[1]", "result": 0.7},
      {"measurement": "Binding of serum 1a to looped/cyclic peptides of protein X2 of SARS-CoV Urbani", "setting": "[1]", "result": 0.6},
      {"measurement": "Binding of serum 1b to linear peptides of protein X2", "setting": "[1]", "result": 0.5},
      {"measurement": "Binding of serum 1b to looped/cyclic peptides of protein X2 of SARS-CoV Urbani", "setting": "[1]", "result": 0.5},
      {"measurement": "Binding of serum 2 to linear peptides of protein X2", "setting": "[1]", "result": 0.3},
      {"measurement": "Binding of serum 2 to looped/cyclic peptides of protein X2 of SARS-CoV Urbani", "setting": "[1]", "result": 0.4},
      {"measurement": "Binding of serum 6 to linear peptides of protein X2", "setting": "[1]", "result": 0.3},
      {"measurement": "Binding of serum 6 to looped/cyclic peptides of protein X2 of SARS-CoV Urbani", "setting": "[1]", "result": 0.3},
      {"measurement": "Binding of serum 37 to linear peptides of protein X2", "setting": "[1]", "result": 0.4},
      {"measurement": "Binding of serum 37 to looped/cyclic peptides of protein X2 of SARS-CoV Urbani", "setting": "[1]", "result": 0.4},
      {"measurement": "Binding of serum 62 to linear peptides of protein X2", "setting": "[1]", "result": 0.6},
      {"measurement": "Binding of serum 62 to looped/cyclic peptides of protein X2 of SARS-CoV Urbani", "setting": "[1]", "result": 0.7},
      {"measurement": "Binding of serum London to linear peptides of protein X2", "setting": "[1]", "result": 0.3},
      {"measurement": "Binding of serum London to looped/cyclic peptides of protein X2 of SARS-CoV Urbani", "setting": "[1]", "result": 0.3},
      {"measurement": "Binding of serum SARS-green to linear peptides of protein X2", "setting": "[1]", "result": 0.4},
      {"measurement": "Binding of serum SARS-green to looped/cyclic peptides of protein X2 of SARS-CoV Urbani", "setting": "[1]", "result": 0.3},
      {"measurement": "Binding of serum SARS-yellow to linear peptides of protein X2", "setting": "[1]", "result": 0.1},
      {"measurement": "Binding of serum SARS-yellow to looped/cyclic peptides of protein X2 of SARS-CoV Urbani", "setting": "[1]", "result": 0.5},
      {"measurement": "Binding of Control Serum Blood-Bank to Looped peptides", "setting": "[2]", "result": 0.7},
      {"measurement": "Binding of Control serum Blood-bank to linear peptides", "setting": "[2]", "result": 0.6},
      {"measurement": "Binding of Control serum LUMC to linear peptides", "setting": "[2]", "result": 0.3},
      {"measurement": "Binding of Control serum LUMC to looped peptides", "setting": "[2]", "result": 0.7},
      {"measurement": "Binding of a rabbit serum to linear peptides", "setting": "[3]", "result": 0.3},
      {"measurement": "Binding of a rabbit serum to looped peptides", "setting": "[3]", "result": 0.5}
    ]},
    {"sequence": "ITVATSRTLSYYKLG", "values": [
      {"measurement": "Binding of serum 1a to linear peptides of protein M of SARS-CoV Urbani", "setting": "[1]", "result": 0.6},
      {"measurement": "Binding of serum 1a to looped/cyclic peptides of protein M of SARS-CoV Urbani", "setting": "[1]", "result": 1.0},
      {"measurement": "Binding of serum 1b to linear peptides of protein M of SARS-CoV Urbani", "setting": "[1]", "result": 0.4},
      {"measurement": "Binding of serum 1b to looped/cyclic peptides of protein M of SARS-CoV Urbani", "setting": "[1]", "result": 0.6},
      {"measurement": "Binding of serum 2 to linear peptides of protein M of SARS-CoV Urbani", "setting": "[1]", "result": 0.5},
      {"measurement": "Binding of serum 2 to looped/cyclic peptides of protein M of SARS-CoV Urbani", "setting": "[1]", "result": 0.8},
      {"measurement": "Binding of serum 6 to linear peptides of protein M of SARS-CoV Urbani", "setting": "[1]", "result": 0.5},
      {"measurement": "Binding of serum 6 to looped/cyclic peptides of protein M of SARS-CoV Urbani", "setting": "[1]", "result": 1.1},
      {"measurement": "Binding of serum 37 to linear peptides of protein M of SARS-CoV Urbani", "setting": "[1]", "result": 0.4},
      {"measurement": "Binding of serum 37 to looped/cyclic peptides of protein M of SARS-CoV Urbani", "setting": "[1]", "result": 0.3},
      {"measurement": "Binding of serum 62 to linear peptides of protein M of SARS-CoV Urbani", "setting": "[1]", "result": 0.4},
      {"measurement": "Binding of serum 62 to looped/cyclic peptides of protein M of SARS-CoV Urbani", "setting": "[1]", "result": 0.6},
      {"measurement": "Binding of serum London to linear peptides of protein M of SARS-CoV Urbani", "setting": "[1]", "result": 0.3},
      {"measurement": "Binding of serum London to looped/cyclic peptides of protein M of SARS-CoV Urbani", "setting": "[1]", "result": 0.4},
      {"measurement": "Binding of serum SARS-green to linear peptides of protein M of SARS-CoV Urbani", "setting": "[1]", "result": 0.5},
      {"measurement": "Binding of serum SARS-green to looped/cyclic peptides of protein M of SARS-CoV Urbani", "setting": "[1]", "result": 0.4},
      {"measurement": "Binding of serum SARS-yellow to linear peptides of protein M of SARS-CoV Urbani", "setting": "[1]", "result": 0.2},
      {"measurement": "Binding of serum SARS-yellow to looped/cyclic peptides of protein M of SARS-CoV Urbani", "setting": "[1]", "result": 0.4},
      {"measurement": "Binding of Control Serum Blood-Bank to Looped peptides of the protein M of SARS-CoV Urbani", "setting": "[2]", "result": 0.5},
      {"measurement": "Binding of Control serum Blood-bank to linear peptides of the protein M of SARS-CoV Urbani", "setting": "[2]", "result": 0.8},
      {"measurement": "Binding of Control serum LUMC to linear peptides of the protein M of SARS-CoV Urbani", "setting": "[2]", "result": 0.7},
      {"measurement": "Binding of Control serum LUMC to looped peptides of the protein M of SARS-CoV Urbani", "setting": "[2]", "result": 0.6},
      {"measurement": "Rabbit serum linear peptides", "setting": "[3]", "result": 0.2},
      {"measurement": "Rabbit serum looped peptides", "setting": "[3]", "result": 0.4}
    ]}
  ]
}
